Patent publication US9029553B2, “2-anilino nicotinyl linked 2-amino benzothiazole conjugates and process for the preparation thereof” (Council of Scientific & Industrial Research, priority 2011, dated 2015)

What was measured:
HL-60 cells [1] = assay: Cell cycle analysis (FACS) by flow cytometry; assay type: cell-based, human; details: 1 μM, up to 24 h
Description: The damage was more apparent with compound 8 and 6 (90% and 60% DNA damaged, respectively).

[2] = tested on: normal monkey kidney CV-1 cells; assay: MTT cytotoxicity in normal cells; assay type: cell-based; details: Primates
Protocol: These compounds were also evaluated for their cytotoxic potential in normal cells and for these purpose their IC50 value were also determine in normal monkey kidney CV-1 cells by using MTT method. The ratios of normal to cancer cells IC50 value were ranges from 10-1000 times (Table 5).

HL-60 cells [3] = assay: Flow cytometric analysis of reactive oxygen species (DCFH-DA); assay type: cell-based, human; details: 1 μM
Protocol: It was clear that these compounds were cytotoxic and induce apoptosis in HL-60 cells, now we have to found out the early events which were responsible for the induction of apoptosis like reactive oxygen species (ROS) or nitric oxide (NO) generation. Intracellular peroxide (ROS) in the cells was measured by DCFH-DA by using flow cytometry. Cells were incubated with tested compounds at 1 μM for 24 h in HL-60 cells and analyzed by flow cytometry after double staining with DCFH-DA (FIG. 7). Cells were analyzed for fluorescence intensity in FL1 vs. cell count. There was hardly any DCF fluorescence (ROS positive cells) in the untreated HL-60 cells, and this status remained unchanged when cells were incubated for 24 hr with compounds 7 and 8. […] Compounds 4 and 6 also induce the generation of peroxide in HL-60 cells (31 and 16% increase, respectively).

[4] = tested on: Ehrlich Ascites Carcinoma (EAC); assay: In vivo anticancer activity, Ehrlich ascites carcinoma; parameters: species or system Swiss mice; details: for No. of deaths / toxicity to animals: EAC mice
Protocol: Model: Ehrlich Ascites Carcinoma (EAC)
Ehrlich ascites carcinoma (EAC) cells were collected from the peritoneal cavity of the swiss mice harbouring 8-10 days old ascitic tumor. 1×10^7 EAC cells were injected intraperitoneally in Swiss mice selected for the experiment on day 0. The next day, animals were randomized and divided into different groups. The treatment groups contained 7 animals each and control group contained 10 animals. Treatment groups were treated with different doses of test substances intraperitoneally from day 1-9. One of the treatment group received 5-fluorouracil (20 mg/kg, i.p) and it served as positive control. The tumor bearing control group was similarly administered normal saline (0.2 ml, i.p.). On day 12, animals were sacrificed and ascitic fluid was collected from peritoneal cavity of each mouse for the evaluation of tumor growth. Percent tumor growth inhibition was calculated based on the total number of tumor cells present in the peritoneal cavity as on day 12 of the experiment using the following formula.

survivin = assay: Western blot of cell death targets; assay type: cell-based, human; details: 1 μM, 24 h, HL-60
Protocol: Apoptosis was further characterized by the western blot analysis. Cells were treated with tested compounds at 1 μM for 24 h and expression of key apoptotic proteins like NF-kB, survivin; PARP, Bcl-2 and HSP-90 were analyzed through western blot. Both NF-kB and survivin are highly expressed in HL-60 cells. NF-kB is a transcriptional factor regulating the expression of several genes in the cells whereas survivin is a cell cycle regulated inhibitor of apoptosis protein (IAP), mostly over expressed in most of the tumors.

502713 = assay: SRB percentage growth inhibition (NCI protocol); assay type: cell-based; details: Homo sapiens, 48 hrs exposure
Protocol: (§1) 2-Anilino nicotinyl linked 2-amino benzothiazoles conjugates of formula 4-8 have been tested against ten and eleven human cancer cell lines for 10 and 1 μM respectively derived from nine cancer types (leukemia, non-small cell lung cancer, colon cancer, CNS cancer, melanoma, ovarian cancer, renal cancer, prostate cancer and breast cancer) as per NCI protocol. For each compound, percentage of growth inhibition was calculated for individual cell lines at a minimum of two concentrations (1 and 10 μM). A protocol of 48 hrs continuous drug exposure was used, and a sulforhodamine B (SRB) protein assay was used to estimate cell viability or growth. The percentage of growth inhibition compared with the control was calculated in table 1 and table 2.

OVCAR-5 = assay: SRB percentage growth inhibition (NCI protocol); assay type: cell-based; details: Homo sapiens, 48 hrs exposure
Protocol: as §1

DU145 = assay: SRB percentage growth inhibition (NCI protocol); assay type: cell-based; details: Homo sapiens, DU-145, 48 hrs exposure
Protocol: as §1

A549 = assay: SRB percentage growth inhibition (NCI protocol); assay type: cell-based; details: Homo sapiens, 48 hrs exposure
Protocol: as §1

Sw-620 = assay: SRB percentage growth inhibition (NCI protocol); assay type: cell-based; details: Homo sapiens, 48 hrs exposure
Protocol: as §1

MCF-7 [5] = assay: SRB percentage growth inhibition (NCI protocol); assay type: cell-based; details: Homo sapiens, MCF7, 48 hrs exposure
Protocol: as §1

PC-3 = assay: SRB percentage growth inhibition (NCI protocol); assay type: cell-based; details: Homo sapiens, 48 hrs exposure
Protocol: as §1

Hela [6] = assay: SRB percentage growth inhibition (NCI protocol); assay type: cell-based; details: Homo sapiens, 48 hrs exposure
Protocol: as §1

HCT-15 [7] = assay: SRB percentage growth inhibition (NCI protocol); assay type: cell-based; details: Homo sapiens, 48 hrs exposure
Protocol: as §1

HEP-2 = assay: SRB percentage growth inhibition (NCI protocol); assay type: cell-based; details: Homo sapiens, 48 hrs exposure
Protocol: as §1

SiHa [8] = assay: SRB percentage growth inhibition (NCI protocol); assay type: cell-based; details: Homo sapiens, 48 hrs exposure
Protocol: as §1

IGR-OV-1 = assay: SRB percentage growth inhibition (NCI protocol); assay type: cell-based; details: Homo sapiens, IGROV-1, 48 hrs exposure
Protocol: as §1

IMR-32 = assay: SRB percentage growth inhibition (NCI protocol); assay type: cell-based; details: Homo sapiens, 48 hrs exposure
Protocol: as §1

SK-NS-H = assay: SRB percentage growth inhibition (NCI protocol); assay type: cell-based; details: Homo sapiens, SK-N-SH, 48 hrs exposure
Protocol: as §1

MCF-7 [9] = assay: MTT inhibition of cell proliferation; assay type: cell-based; details: Homo sapiens, MCF7, 48 h
Description: (§2) In order to determine the mode of action of cell death in cancer cells, first we explored the cytotoxic potential of different structural analogs of benzothiazoles on different human cancer cell lines. […] These compounds have limited or no cytotoxicity to cervical cancer SiHa, HeLa cells, breast cancer MCF-7 cells and colon cancer HCT-15 cells.

Hela [10] = assay: MTT inhibition of cell proliferation; assay type: cell-based; details: Homo sapiens, 48 h
Description: as §2

HCT-15 [11] = assay: MTT inhibition of cell proliferation; assay type: cell-based; details: Homo sapiens, 48 h
Description: as §2

SiHa [12] = assay: MTT inhibition of cell proliferation; assay type: cell-based; details: Homo sapiens, 48 h
Description: as §2

HL-60 = assay: MTT inhibition of cell proliferation; assay type: cell-based; details: Homo sapiens, 48 h
Description: as §2

topoisomerase II = assay: DNA topoisomerase-II inhibition assay; assay type: biochemical; details: 1 μM; etoposide 100 μM
Description: DNA topoisomerases are nuclear enzymes capable of resolving the topology of DNA to allow its replication. So, proper relaxing is very important for successful replication cycle and thus for the cell survival. However, topoisomerases also serve as targets in the anticancer chemotherapy in which cell death serves an important purpose. Moreover, the topoisomerase targeting drugs can either be classified either topo posions, which act by stabilizing enzyme DNA cleavable complexes leading to DNA break or topo catalytic inhibitors, which act by stabilizing enzyme where both DNA strands remain intact and no DNA breaks occur. Importantly, all the topoisomerase inhibitors finally induce apoptosis. In the present study, all the five compounds 4-8 were first subjected to topoisomerase II inhibition assay.

[13] = 20 mg/Kg i.p. day 1-9, read day 12
[14] = 40 mg/Kg i.p. day 1-9, read day 12

SMILES | IC50 [2] | Growth Inhibition (%) [4, 13] | No. of deaths / toxicity to animals ([4]; 20 mg/Kg i.p.) | Growth Inhibition (%) [4, 14] | No. of deaths / toxicity to animals ([4]; 40 mg/Kg i.p.) | inhibition at 10 µM 502713 | inhibition at 1 µM (OVCAR-5) | inhibition at 10 µM (OVCAR-5) | inhibition at 1 µM (DU145) | inhibition at 10 µM (DU145) | inhibition at 1 µM (A549) | inhibition at 10 µM (A549) | inhibition at 1 µM (Sw-620) | inhibition at 10 µM (Sw-620) | inhibition at 1 µM (MCF-7 [5]) | inhibition at 1 µM (PC-3) | inhibition at 1 µM (Hela [6]) | inhibition at 1 µM (HCT-15 [7]) | inhibition at 10 µM (HCT-15 [7]) | inhibition at 1 µM (HEP-2) | also measured
O=C(Nc1nc2ccc([N+](=O)[O-])cc2s1)c1cccnc1Nc1ccc(F)cc1 [Compound 6, N3-(6-nitro-1,3-benzothiazol-2-yl)-2-(4-fluoroanilino)nicotinamide] | 15 µM | 22.18% | 0/7 | 68.11% | 4/7 and considerable toxicity | 66% | 27% | 53% | 31% | 51% | 27% | 18% | 9% | 67% | 39% | 26% | 40% | 22% | 55% | 53% | DNA damaged (sub-G0 fraction) (HL-60 cells [1]): 60%; increase in DCF positive cell population (ROS) (HL-60 cells [3]; 24 h, HL-60, compared to control): 16%; Growth Inhibition (%) ([4]; 30 mg/Kg i.p. day 1-9, read day 12): 43.11%; No. of deaths / toxicity to animals ([4]; 30 mg/Kg i.p.): 0/7; No. of deaths / toxicity to animals ([4]; 40 mg/Kg i.p., listed as Comp 6): 4/7; survivin level (western blot) (survivin): highest inhibition potential; inhibition at 10 µM (HEP-2): 52%; inhibition at 10 µM (SiHa [8]): 23%; inhibition at 1 µM (IGR-OV-1): 25%; inhibition at 1 µM (IMR-32): 31%; inhibition at 10 µM (IMR-32): 33%; inhibition at 10 µM (SK-NS-H): 63%; IC50 (MCF-7 [9]): > 100 µM; IC50 (Hela [10]): 8 µM; IC50 (HCT-15 [11]): > 100 µM; IC50 (SiHa [12]): 7 µM; IC50 (HL-60): 300 nM
O=C(Nc1nc2ccc([N+](=O)[O-])cc2s1)c1cccnc1Nc1ccc(Cl)cc1Cl [Compound 7] | 0.8 µM | 63.89% | without any deaths | Intolerable | 7/7 | 2% | 19% | 0% | 36% | 39% | 15% | 19% | 12% | 61% | 80% | 27% | 0% | 4% | 75% | 46% | topoisomerase-II inhibition (DNA relaxation) (topoisomerase II): more potent effect relative to etoposide; DCF fluorescence (ROS positive cells), in words (HL-60 cells [3]; 24 hr, HL-60): unchanged; No. of deaths / toxicity to animals ([4]; 20 mg/Kg i.p., listed as Comp 7): 0/7; inhibition at 10 µM (HEP-2): 14%; inhibition at 10 µM (SiHa [8]): 35%; inhibition at 1 µM (IGR-OV-1): 24%; inhibition at 1 µM (IMR-32): 42%; inhibition at 10 µM (IMR-32): 48%; inhibition at 10 µM (SK-NS-H): 50%; IC50 (MCF-7 [9]): > 100 µM; IC50 (Hela [10]): > 100 µM; IC50 (HCT-15 [11]): > 100 µM; IC50 (SiHa [12]): > 50 µM; IC50 (HL-60): 400 nM
